Consider 42 compounds from patent US8653115B2, “Heterocyclic non-nucleoside compounds, their preparation, pharmaceutical composition and their use as antiviral agents” (Shanghai Institute of Materia Medica, Chinese Academy of …, priority 2006, dated 2014).

The test system of data set [1] is Hepatitis B virus (HBV) DNA. Briefly: HBV-DNA replication in HepG2.2.15 supernatant, fluorescent quantification PCR. Format: cell-based. The following applies: for IC50: Hepatitis B virus, 192 h, HepG2.2.15 supernatant, day 8, PCR, NA means no obvious biological activity or unable to be calculated. As for the experimental part:
(§1) Hepatitis B virus (HBV) transgenic human hepatoma carcinoma cell, HepG2.2.15 cell line, can secrete hepatitis B virus particles (containing antigen and DNA) into the supernatant when being incubated.
(§2) Under the influence of antiviral drugs, the contents of HBsAg, HBeAg and viral DNA secreted from cells into the supernatant were detected. Compared with the contents of control groups without drugs, the antiviral activity of the sample drugs can be observed. Meanwhile, the cytotoxic effect of the sample drugs can be detected. The value concentration of the sample drugs which caused 50% of the cells dead measured with MTT method was CC50. And the value concentration of the sample drugs which inhibited 50% of the secretion of HBsAg and HBeAg detected by specific ELISA kits and inhibited 50% of the viral DNA replication detected by fluorescent quantitation PCR method was IC50.
(§3) HepG2.2.15 cells were inoculated into a 96-well plate, and the sample drugs were added next day. The medium and the sample drugs with the same concentration were renewed periodically, and the supernatants were collected on the eighth day to be detected. MTT was added to the cells in the 96-well plate, and MTT dissolving solution was added after 4 hours and reacted overnight. OD570 was measured on ELISA the next day. The cytotoxicity of the sample drugs to HepG2.2.15 cells, the effect of the sample drugs on the growth of the cells, and the concentration of the sample drugs (CC50) resulting in 50% of the cells dead were estimated according to the OD values.
A suitable amount of supernatant was added to the same volume of virus extract solution, and was boiled after mixed homogenously, then centrifuged at 10000 rpm under room temperature for 5 minutes, and a suitable amount of supernatant was collected for PCR amplification. Meanwhile five HBV-DNA standard samples were set to establish a standard curve. According to the obtained viral DNA replication value, the inhibition ratios of HBV-DNA replication of each sample drug at different concentrations were calculated, and then the half inhibition rates of the sample drugs were calculated to obtain IC50. For those samples that can not be calculated for IC50 values, they can be represented by ICx and list the corresponding concentration values.

A short description of data set [2]: Cytotoxicity to HepG2.2.15 cells, MTT method. Format: cell-based. The following applies: human, HepG2.2.15 cells (HBV-transgenic human hepatoma cell line), day 8, 50% death concentration. The method, then:
as §1, §2, §3
On the technique in general: Tetrazolium assays rely on reduction of a dye to a coloured formazan, in cell work by metabolically active cells.

As a reminder, the IC50 is the concentration that inhibits the measured activity by half. What is called CC50 is the concentration that lowers cell viability or growth by half. Low readings indicate greater toxicity to the cells, high ones lower toxicity to the cells. As for `CC(C)Cc1sc(-c2nccs2)nc1CO` [C254], the IC50 in data set [1] was greater than 33.3 µM. This compound also had a CC50 at 8 day in data set [2] greater than 33.3 µM.
For the compound `CC(=O)c1nc(-c2nccs2)sc1CC(C)C` [C266], the 50% inhibitory concentration (IC50) in data set [1] was 0.06 µM. Also, the 50% cytotoxic concentration (CC50) at 8 day in data set [2] is greater than 33.3 µM.
As for `CC(C)Cc1sc(-c2nccs2)nc1C(N)=O` [C267], the “DNA replication ICX: IC89” value in data set [1] (concentration at 89% inhibition, IC50 not calculable) is listed as “IC89 = 33 μM”. Also, the CC50 at 8 day in data set [2] was greater than 100 µM.
Take `CC(C)Cc1sc(-c2nccs2)nc1C(C)O` (stereo not shown) [C268-2]: the IC50 in data set [1] was 0.6 µM. The CC50 at 8 day in data set [2] is greater than 33.3 µM.
For `CCOC(=O)c1nc(-c2ccccn2)oc1CC(C)C` [C274] the same measures were 67.6 µM and greater than 100 µM.
For `CCC(=O)c1nc(-c2nccs2)sc1CC(C)C` [C280-4] the same measures were 0.09 µM and greater than 33.3 µM.
For `CNC(=O)c1nc(-c2nccs2)sc1CC(C)C` [C281], the “DNA replication ICX: IC94” value in data set [1] (concentration at 94% inhibition, IC50 not calculable) was “IC94 = 33 μM”. This compound also displayed a CC50 at 8 day in data set [2] greater than 100 µM.
With `CCC(O)c1nc(-c2nccs2)sc1CC(C)C` (stereo not shown) [C282-2], in data set [1], the IC50 is 0.8 µM. In data set [2], this compound came in with a cytotoxic concentration (CC50) at 8 day greater than 33.3 µM.
In data set [2], `CCOC(=O)c1nc(-c2cccnc2)sc1CC(C)C` [C290-2] registered a half-maximal cytotoxic concentration (CC50) at 8 day greater than 100 µM.
Same read-out and setting: the same measure for `CCOC(=O)c1nc(-c2ccncc2)sc1CC(C)C` [C290-3]: greater than 100 µM.
Consider `CCOC(=O)c1nc(-c2ccccn2)sc1CC(C)C` [C290], for which the concentration for half-maximal inhibition (IC50) in data set [1] was 0.14 µM. Moreover, the CC50 at 8 day in data set [2] is greater than 100 µM.
Consider `CC(C)Cc1sc(-c2nccs2)nc1C(=O)N(C)C` [C295-3], for which, in data set [1] (concentration at 12% inhibition, IC50 not calculable), the “DNA replication ICX: IC12” value is listed as “IC12 = 1.23 μM”. The compound also returned a CC50 at 8 day in data set [2] greater than 100 µM.
On to `CCOC(=O)c1nc(-c2ccc(C)cc2)sc1CC(C)C` [C303-1], for which, in data set [1], the IC50 is 2.9 µM. The same compound had a CC50 at 8 day in data set [2] greater than 33.3 µM.
The like results for `CCOC(=O)c1nc(-c2cccc(C)c2)sc1CC(C)C` [C303-2] were, in that order, greater than 33.3 µM and greater than 33.3 µM.
Take `CCOC(=O)c1nc(-c2ccccc2C)sc1CC(C)C` [C303-3]: the 50% inhibitory concentration (IC50) in data set [1] is 1.48 µM. Moreover, in data set [2], the CC50 at 8 day was greater than 33.3 µM.
Turning to `CCOC(=O)c1nc(-c2ccc(O)cc2)sc1CC(C)C` [C305-4], in data set [2], the CC50 at 8 day was greater than 33.3 µM.
As to `CCOC(=O)c1nc(-c2cccc(O)n2)sc1CC(C)C` [C306-2], in data set [1], the IC50 was 0.14 µM. The compound also returned a CC50 at 8 day in data set [2] greater than 100 µM.
As to `CCOC(=O)c1nc(-c2ncccc2O)sc1CC(C)C` [C306-3], the 50% inhibitory concentration (IC50) in data set [1] is 0.14 µM. In addition, half-maximal cytotoxicity in data set [2] (CC50 at 8 day) was put at 5.67 µM.
For `CCOC(=O)c1nc(-c2ccc(F)cc2)sc1CC(C)C` [C307-2], the CC50 at 8 day in data set [2] is greater than 33.3 µM.
In the case of `CCOC(=O)c1nc(-c2cccc(F)c2)sc1CC(C)C` [C307-3], the half-inhibitory concentration (IC50) in data set [1] is less than 0.05 µM. This compound displayed a CC50 at 8 day in data set [2] greater than 33.3 µM.
The like results for `CCOC(=O)c1nc(-c2ccccc2F)sc1CC(C)C` [C307-4] were, in that order, 0.14 µM and greater than 33.3 µM.
The like results for `CCOC(=O)c1nc(-c2ccc(OC)cc2)sc1CC(C)C` [C319-3] were, in that order, 0.09 µM and greater than 33.3 µM.
Consider `CCOC(=O)c1nc(-c2cccc(OC)c2)sc1CC(C)C` [C319-4], for which the half-maximal inhibitory concentration (IC50) in data set [1] is 0.11 µM. The CC50 at 8 day in data set [2] was greater than 33.3 µM.
In the case of `CCOC(=O)c1nc(-c2ccccc2OC)sc1CC(C)C` [C319-5], the IC50 in data set [1] is 0.04 µM. The 50% cytotoxic concentration (CC50) at 8 day in data set [2] was greater than 33.3 µM.
The like results for `CCOC(=O)C=Cc1nc(-c2nccs2)sc1CC(C)C` [C322-2] were, in that order, 0.06 µM and greater than 33.3 µM.
Compound `CCOC(=O)c1nc(-c2ccc3ccccc3n2)[nH]c1CC(C)C` [C323-2] yielded a CC50 at 8 day in data set [2] greater than 100 µM.
Consider `CCOC(=O)c1nc(-c2cccc(Cl)c2)sc1CC(C)C` [C323-3], for which, in data set [2], the CC50 at 8 day is greater than 33.3 µM.
As for `CCOC(=O)c1nc(-c2ccc3ccccc3n2)oc1CC(C)C` [C324-4], in data set [1], the IC50 was 11.9 µM. In data set [2], this compound returned a CC50 at 8 day of 45.4 µM.
With `CCOC(=O)CCc1nc(-c2nccs2)sc1CC(C)C` [C324-5], in data set [1], the IC50 is 3 µM. In data set [2], this compound showed a half-maximal cytotoxic concentration (CC50) at 8 day greater than 33.3 µM.
For `CC(C)Cc1sc(-c2nccs2)nc1C(=O)OC(C)(C)C` [C324-6] the same measures were 3.7 µM and greater than 33.3 µM.
For `CCOC(=O)c1nc(-c2ccc([N+](=O)[O-])cc2)sc1CC(C)C` [C334-2] the same measures were 1.06 µM and greater than 33.3 µM.
The like results for `CCOC(=O)c1nc(-c2cccc([N+](=O)[O-])c2)sc1CC(C)C` [C334-3] were, in that order, 1.2 µM and greater than 33.3 µM.
For `CCOC(=O)c1nc(-c2ccccc2[N+](=O)[O-])sc1CC(C)C` [C334-4], the IC50 in data set [1] is 1.24 µM. Further, the cytotoxic concentration (CC50) at 8 day in data set [2] was greater than 33.3 µM.
For the compound `CC(C)Cc1sc(-c2nccs2)nc1C(=O)Nc1ccccc1` [C343], the “DNA replication ICX: IC19” value in data set [1] (concentration at 19% inhibition, IC50 not calculable) is given as “IC19 = 1.23 μM”. Besides, the CC50 at 8 day in data set [2] turned out to be 50 µM.
In the case of `CCOC(=O)c1nc(-c2ncc(-c3ccccc3)s2)sc1CC(C)C` [C358], the “DNA replication ICX: IC36” value in data set [1] (concentration at 36% inhibition, IC50 not calculable) was “IC36 = 1.23 μM”. This compound came in with a 50% cytotoxic concentration (CC50) at 8 day in data set [2] greater than 33.3 µM.
Regarding `CCOC(=O)c1nc(-c2cccc([N+](=O)[O-])c2OC)sc1CC(C)C` [C364-1], the 50% inhibitory concentration (IC50) in data set [1] is 1.1 µM. In data set [2], half-maximal cytotoxicity (CC50 at 8 day) was put at 19.2 µM.
`CCOC(=O)c1nc(-c2ccc([N+](=O)[O-])c(OC)c2)sc1CC(C)C` [C364-2]: in data set [2], the CC50 at 8 day was greater than 33.3 µM.
For the compound `CCOC(=O)c1nc(-c2ncc(Br)s2)sc1CC(C)C` [C375], the IC50 in data set [1] is greater than 33.3 µM. Also, the CC50 at 8 day in data set [2] is greater than 33.3 µM.
`CCOC(=O)c1nc(-c2ccc(NC(=O)OC(C)(C)C)cc2)sc1CC(C)C` [C404] registered a CC50 at 8 day in data set [2] greater than 33.3 µM.
As for `COC(=O)c1nc(-c2nccs2)sc1CC(C)C` [W28], in data set [1], the concentration for half-maximal inhibition (IC50) is 2.4 µM. The CC50 at 8 day in data set [2] is greater than 333 µM.
As for `CCCCc1sc(-c2nccs2)nc1C(=O)O` [Wang268], the “DNA replication ICX: IC53” value in data set [1] (concentration at 53% inhibition, IC50 not calculable) is “IC53 = 125 μM”. Also, the half-maximal cytotoxic concentration (CC50) at 8 day in data set [2] turned out to be 257 µM.
In the case of `O=C(O)c1nc(-c2nccs2)sc1Cc1ccccc1` [Wang302], the IC50 in data set [1] was 63.1 µM. In data set [2], it took 192 µM to reach half-maximal cytotoxicity (CC50 at 8 day).
